These results are taken from patent US10329309B2, “3-(3H-imidazo[4,5-B]pyridin-2-yl)-1H-pyrazolo[4,3-B]pyridines and therapeutic uses thereof” (Samumed, LLC, priority 2015, dated 2019).

Common to all, as to format: cell-based
Experiment [1] deals with Wnt activity (Sp5-Luc reporter, SW480 colon carcinoma cells). Nature of the experiment: Screening assay for Wnt activity: Sp5-Luc reporter gene assay in SW480 cells. The following applies: Homo sapiens, overnight incubation, 10-point dose-response from 10 μM. Summed up:
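Luminescence (BrightGlo) read after overnight 37 °C exposure of Sp5-Luc SW480 reporter cells, 4,000/well in 1% FBS, to compound dosed 1:3 over 10 points from 10 μM with 0.1% DMSO. Values normalized to DMSO-only cells, fitted with variable-slope four-parameter model; where EC50 exceeds 10 μM, % inhibition at 10 μM reported.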

Another experiment concerns SW480 colon cancer cells. Nature of the experiment: Cell viability assay (CellTiter-Blue), four days. To be noted: Homo sapiens, 96 h; for EC50: CellTiter-Blue cell viability; for inhibition at 10 µM: read-out: percent inhibition at 10 μM (given for EC50 of >10 μM). Summed up:
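4-day exposure, 37 °C/5% CO2; ~2×10^3 SW480 cells/well; 8-pt 1:3 curve, 10–0.0045 μM, duplicates vs DMSO controls. Resazurin→resorufin fluorescence readout, ~3 h. EC50 by nonlinear fit; if >10 μM, % inhibition at 10 μM reported.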

The subject of the next experiment is IL-6 (THP-1 cells). Nature of the experiment: Inhibition of IL-6 in LPS-stimulated THP-1 monocytes (HTRF). To be noted: Homo sapiens; for EC50: LPS 500 ng/mL, IL-6 by HTRF; for inhibition at 10 µM: LPS stimulated, IL-6, at 10 μM, read-out: percent inhibition at 10 μM (given for EC50 of >10 μM). Summed up:
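IL-6 release was read as the HTRF 665/620 nm ratio after 22 h of 500 ng/mL LPS at 37 °C. Before stimulation, THP-1 cells kept 24 h in 1% FBS were exposed 2 h to a 10-point 1:3 compound series starting at 10 μM, in 0.1% DMSO. Four-parameter EC50s came from DMSO-normalized duplicates, with % inhibition at 10 μM reported beyond 10 μM.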

On to `Cc1ccc(-c2ccnc3[nH]c(-c4n[nH]c5ccc(-c6cncc(NC(=O)C(C)C)c6)nc45)nc23)s1` [Compound 401, N-(5-(3-(7-(5-methylthiophen-2-yl)-3H-imidazo[4,5-b]pyridin-2-yl)-1H-pyrazolo[4,3-b]pyridin-5-yl)pyridin-3-yl)isobutyramide], for which the EC50 came to 565 nM in experiment [1], 270 nM in the experiment with SW480 colon cancer cells and 161 nM in the experiment on IL-6 (THP-1 cells).

As for `CC(C)Nc1cncc(-c2ccc3[nH]nc(-c4nc5c(-c6cc(F)cc(NCCN(C)C)c6)ccnc5[nH]4)c3n2)c1` [Compound 460, N^1-(3-fluoro-5-(2-(5-(5-(isopropylamino)pyridin-3-yl)-1H-pyrazolo[4,3-b]pyridin-3-yl)-3H-imidazo[4,5-b]pyridin-7-yl)phenyl)-N^2,N^2-dimethylethane-1,2-diamine], the EC50 is 1180 nM in experiment [1], 695 nM with SW480 colon cancer cells and 1800 nM in the experiment on IL-6 (THP-1 cells).

As for `Cc1ccncc1-c1ccc2[nH]nc(-c3nc4c(-c5cc(F)cc(CNS(C)(=O)=O)c5)ccnc4[nH]3)c2n1` [Compound 481, N-(3-fluoro-5-(2-(5-(4-methylpyridin-3-yl)-1H-pyrazolo[4,3-b]pyridin-3-yl)-3H-imidazo[4,5-b]pyridin-7-yl)benzyl)methanesulfonamide], the EC50 stood at 1250 nM in experiment [1], 5570 nM with SW480 colon cancer cells and 1030 nM in the experiment with IL-6 (THP-1 cells).

For `CS(=O)(=O)NCc1cc(F)cc(-c2ccnc3[nH]c(-c4n[nH]c5ccc(-c6cncc(CNCc7ccccc7)c6)nc45)nc23)c1` [Compound 500, N-(3-(2-(5-(5-((Benzylamino)methyl)pyridin-3-yl)-1H-pyrazolo[4,3-b]pyridin-3-yl)-3H-imidazo[4,5-b]pyridin-7-yl)-5-fluorobenzyl)methanesulfonamide], the EC50 was 3580 nM in experiment [1], 8840 nM with SW480 colon cancer cells and more than 10000 nM in the experiment on IL-6 (THP-1 cells). In the experiment with IL-6 (THP-1 cells), the inhibition at 10 µM was 45.6%.

For the compound `Fc1cccc(-c2ccnc3[nH]c(-c4n[nH]c5ccc(C6=CCNCC6)nc45)nc23)c1` [Compound 506, 3-(7-(3-fluorophenyl)-3H-imidazo[4,5-b]pyridin-2-yl)-5-(1,2,3,6-tetrahydropyridin-4-yl)-1H-pyrazolo[4,3-b]pyridine], the EC50 is more than 10000 nM in experiment [1], 2800 nM in the experiment with SW480 colon cancer cells and more than 10000 nM in the experiment with IL-6 (THP-1 cells). In addition, the inhibition at 10 µM in the experiment on IL-6 (THP-1 cells) is 27.9%.

On to `Cc1ncc(-c2ccc3[nH]nc(-c4nc5c(-c6cccc(F)c6)ccnc5[nH]4)c3n2)n1C` [Compound 509, 5-(1,2-dimethyl-1H-imidazol-5-yl)-3-(7-(3-fluorophenyl)-3H-imidazo[4,5-b]pyridin-2-yl)-1H-pyrazolo[4,3-b]pyridine], for which the figures for the EC50 (in experiment [1]; in the experiment on SW480 colon cancer cells; in the experiment on IL-6 (THP-1 cells)) were 120 nM, 115 nM and more than 10000 nM, respectively. In the experiment on IL-6 (THP-1 cells), the inhibition at 10 µM was 17.5%.

Consider `NC1CN(c2cncc(-c3ccc4[nH]nc(-c5nc6c(-c7cccc(F)c7)ccnc6[nH]5)c4n3)n2)C1` [Compound 510, 1-(6-(3-(7-(3-fluorophenyl)-3H-imidazo[4,5-b]pyridin-2-yl)-1H-pyrazolo[4,3-b]pyridin-5-yl)pyrazin-2-yl)azetidin-3-amine], for which the figures for the 50% effective concentration (EC50) (in experiment [1]; in the experiment on SW480 colon cancer cells; in the experiment with IL-6 (THP-1 cells)) were 3710 nM, 1600 nM and 23 nM, respectively.

For `Fc1cccc(-c2ccnc3[nH]c(-c4n[nH]c5ccc(-c6cncc(OCCN7CCCC7)c6)nc45)nc23)c1` [Compound 514, 3-(7-(3-Fluorophenyl)-3H-imidazo[4,5-b]pyridin-2-yl)-5-(5-(2-(pyrrolidin-1-yl)ethoxy)pyridin-3-yl)-1H-pyrazolo[4,3-b]pyridine], the EC50 in experiment [1] was 4110 nM; with SW480 colon cancer cells, 8650 nM; in the experiment with IL-6 (THP-1 cells), more than 10000 nM. Also, the inhibition at 10 µM in the experiment with IL-6 (THP-1 cells) is 49.5%.

Regarding `CN(C)CCOc1cncc(-c2ccc3[nH]nc(-c4nc5c(-c6cccc(F)c6)ccnc5[nH]4)c3n2)c1` [Compound 515, 2-((5-(3-(7-(3-fluorophenyl)-3H-imidazo[4,5-b]pyridin-2-yl)-1H-pyrazolo[4,3-b]pyridin-5-yl)pyridin-3-yl)oxy)-N,N-dimethylethan-1-amine], the 50% effective concentration (EC50) worked out at 2840 nM in experiment [1], 1100 nM in the experiment on SW480 colon cancer cells and 5540 nM in the experiment on IL-6 (THP-1 cells).

`COc1cncc(-c2ccc3[nH]nc(-c4nc5c(-c6cccc(F)c6)ccnc5[nH]4)c3n2)c1` [Compound 516, 3-(7-(3-fluorophenyl)-3H-imidazo[4,5-b]pyridin-2-yl)-5-(5-methoxypyridin-3-yl)-1H-pyrazolo[4,3-b]pyridine]: the EC50 in experiment [1] was determined as 338 nM; in the experiment on SW480 colon cancer cells, 120 nM; in the experiment with IL-6 (THP-1 cells), 8230 nM.

`Oc1cncc(-c2ccc3[nH]nc(-c4nc5c(-c6cccc(F)c6)ccnc5[nH]4)c3n2)c1` [Compound 517, 5-(3-(7-(3-fluorophenyl)-3H-imidazo[4,5-b]pyridin-2-yl)-1H-pyrazolo[4,3-b]pyridin-5-yl)pyridin-3-ol]: the 50% effective concentration (EC50) was 423 nM in experiment [1], 768 nM in the experiment with SW480 colon cancer cells and 1540 nM in the experiment on IL-6 (THP-1 cells).

For the compound `Fc1cccc(-c2ccnc3[nH]c(-c4n[nH]c5ccc(-c6cnccn6)nc45)nc23)c1` [Compound 520, 3-(7-(3-fluorophenyl)-3H-imidazo[4,5-b]pyridin-2-yl)-5-(pyrazin-2-yl)-1H-pyrazolo[4,3-b]pyridine], the EC50 was 3620 nM in experiment [1], 2040 nM in the experiment on SW480 colon cancer cells and more than 10000 nM in the experiment with IL-6 (THP-1 cells). Further, the inhibition at 10 µM with IL-6 (THP-1 cells) amounted to 19.5%.

With `CN(C)CC(=O)Nc1cncc(-c2ccc3[nH]nc(-c4nc5c(-c6cccc(F)c6)ccnc5[nH]4)c3n2)c1` [Compound 969, 2-(dimethylamino)-N-(5-(3-(7-(3-fluorophenyl)-3H-imidazo[4,5-b]pyridin-2-yl)-1H-pyrazolo[4,3-b]pyridin-5-yl)pyridin-3-yl)acetamide], the EC50 in experiment [1] was 4360 nM; in the experiment on SW480 colon cancer cells it was more than 10000 nM; in the experiment with IL-6 (THP-1 cells), more than 10000 nM. Moreover, the figures for the inhibition at 10 µM in the experiment with SW480 colon cancer cells and with IL-6 (THP-1 cells) were 27.7% and 26.3%, respectively.

With `COc1cccc(-c2ccnc3[nH]c(-c4n[nH]c5ccc(-c6cccnc6)nc45)nc23)c1` [Compound 994, 3-(7-(3-methoxyphenyl)-3H-imidazo[4,5-b]pyridin-2-yl)-5-(pyridin-3-yl)-1H-pyrazolo[4,3-b]pyridine], the results for the EC50 (in experiment [1]; in the experiment on SW480 colon cancer cells; in the experiment on IL-6 (THP-1 cells)) were 1870 nM, 897 nM and more than 10000 nM, respectively. Besides, the inhibition at 10 µM with IL-6 (THP-1 cells) was 50.2%.

`COc1cccc(-c2ccnc3[nH]c(-c4n[nH]c5ccc(-c6cncc(NC(=O)Cc7ccccc7)c6)nc45)nc23)c1` [Compound 1000, N-(5-(3-(7-(3-methoxyphenyl)-3H-imidazo[4,5-b]pyridin-2-yl)-1H-pyrazolo[4,3-b]pyridin-5-yl)pyridin-3-yl)-2-phenylacetamide]: the EC50 was 2800 nM in experiment [1], 1100 nM in the experiment on SW480 colon cancer cells and more than 10000 nM with IL-6 (THP-1 cells). Also, in the experiment on IL-6 (THP-1 cells), the inhibition at 10 µM stood at 12.3%.

For `COc1cccc(-c2ccnc3[nH]c(-c4n[nH]c5ccc(-c6cncc(NC(=O)CC(C)(C)C)c6)nc45)nc23)c1` [Compound 1006, N-(5-(3-(7-(3-methoxyphenyl)-3H-imidazo[4,5-b]pyridin-2-yl)-1H-pyrazolo[4,3-b]pyridin-5-yl)pyridin-3-yl)-3,3-dimethylbutanamide], the EC50 in experiment [1] was 1550 nM; in the experiment with SW480 colon cancer cells, 1180 nM; in the experiment on IL-6 (THP-1 cells), more than 10000 nM. Moreover, in the experiment on IL-6 (THP-1 cells), the inhibition at 10 µM was found to be 32.7%.

In the case of `COc1cccc(-c2ccnc3[nH]c(-c4n[nH]c5ccc(-c6cncc(NC(=O)C7CCCCC7)c6)nc45)nc23)c1` [Compound 1012, N-(5-(3-(7-(3-Methoxyphenyl)-3H-imidazo[4,5-b]pyridin-2-yl)-1H-pyrazolo [4,3-b]pyridin-5-yl)pyridin-3-yl)cyclohexanecarboxamide], the half-maximal effective concentration (EC50) in experiment [1] was 1910 nM; in the experiment on SW480 colon cancer cells it was 2910 nM; in the experiment on IL-6 (THP-1 cells), more than 10000 nM. Further, in the experiment on IL-6 (THP-1 cells), the inhibition at 10 µM was 43.3%.

For `CC(C)CC(=O)Nc1cncc(-c2ccc3[nH]nc(-c4nc5c(-c6ccc(Cl)s6)ccnc5[nH]4)c3n2)c1` [Compound 1037, N-(5-(3-(7-(5-chlorothiophen-2-yl)-3H-imidazo[4,5-b]pyridin-2-yl)-1H-pyrazolo [4,3-b]pyridin-5-yl)pyridin-3-yl)-3-methylbutanamide], the EC50 in experiment [1] was determined as 1490 nM; with SW480 colon cancer cells, 110 nM; with IL-6 (THP-1 cells), 5050 nM.

On to `CC(C)(C)C(=O)Nc1cncc(-c2ccc3[nH]nc(-c4nc5c(-c6ccc(Cl)s6)ccnc5[nH]4)c3n2)c1` [Compound 1043, N-(5-(3-(7-(5-chlorothiophen-2-yl)-3H-imidazo[4,5-b]pyridin-2-yl)-1H-pyrazolo [4,3-b]pyridin-5-yl)pyridin-3-yl)pivalamide], for which the EC50 is 644 nM in experiment [1], more than 10000 nM in the experiment on SW480 colon cancer cells and more than 10000 nM in the experiment with IL-6 (THP-1 cells). For the same compound, the inhibition at 10 µM in the experiment with SW480 colon cancer cells came to 14.5%; with IL-6 (THP-1 cells), 7.6%.
